Experimental data taken from patent US10376486B2, “Compositions and methods for reactivating latent viral infections” (priority 2014, dated 2019).
“Also recorded” adds a separate entry of the source.

Legend:
[1] = test system: PEP005-induced HIV reactivation in J-Lat A1 cells; assay: Suppression of PEP005-induced HIV reactivation in J-Lat A1 cells (GFP expression by RT-qPCR); type: cell-based; details: 6 nM PEP005, PKC inhibitor 1, 2 or 5 μM, Bay 11-7082 2.5 μM
Protocol: FIG. 4: PEP005-induced HIV reactivation is mediated through PKCδ/θ-IκBα/ε-NF-κB signaling. (A) PEP005-induced HIV reactivation is suppressed by inhibition of the PKCδ/θ. J-Lat A1 cells were treated with 6 nM of PEP005 in the presence of 1, 2 or 5 μM of PKC inhibitor (PKCθ/δ inhibitor; Milipore/Calbiochem (539649)) and evaluated for GFP expression by RT-qPCR. (B) NF-κB inhibition partially suppresses PEP005-induced HIV reactivation in J-Lat A1 cells. J-Lat A1 cells were treated with 6 nM of PEP005 in the presence of 2.5 μM Bay 11-7082, an NF-κB inhibitor, and were evaluated for GFP expression by RT-qPCR. (C) J-Lat A1 cells were treated with PEP005 or alternatively with PKC inhibitor alone or in the presence of PEP005 and the relative binding of NF-κB to the HIV LTR was determined using ChIP-qPCR.
Real-time PCR analysis of GFP or HIV gene expression: Total RNA was isolated from J-Lat A1 cells or U1 cells using the RNeasy Kit (Qiagen) followed by digestion with DNase I (Invitrogen). First strand cDNA was synthesized using Superscript II (Invitrogen). Real-time PCR (TaqMan) was performed on a ViiA 7 detector using the following primer/probe set: for J-Lat A1 cells, primer 1: 5′-[…]-3′ (SEQ ID NO:5), primer 2: 5′-[…]-3 ‘ (SEQ ID NO:6), probe 5’-FAM CTACAAGACCC G[…]-3′ (SEQ ID NO:7), for U1 cells HIV 5′ LTR primers/probe were used (see above). […]

[2] = test system: PKCδ/θ-IκBα/ε-NF-κB signaling; details: IngB treatment; cited from earlier work
[3] = test system: latent HIV in J-Lat A1 cells; assay: HIV latency reactivation in J-Lat A1 cells (GFP expression by flow cytometry); type: cell-based; details: GFP, 24 h, PEP005 2-40 nM, GSK343 2 μM
Protocol: FIG. 1: PEP005 induces reactivation of HIV latency in vitro. J-Lat A1 cells were exposed to different concentrations of PEP005 and virus reactivation was measured by GFP expression using flow cytometry. Cell viability was determined by Live/Dead dye staining. (A) Chemical Structure of PEP005. […] (D) PEP005 potently reactivates latent HIV in cell lines compared with other LRAs. J-Lat A1 cells were treated with 10 nM PEP005, 500 nM SAHA, 2 μM JQ1, 2 μM GSK343, 10 ng/ml TNF, 2 μM Prostratin, or 5 ng/ml PMA for 24 hours and the percentage of GFP expression was evaluated using flow cytometry. *, p<0.05; **, p<0.01.
FIG. 2: PEP005 synergizes with other latency reversing agents in reactivating latent HIV. (A) J-Lat A1 cells were treated with 5 ng/ml PMA, 6 nM PEP005, 500 nM SAHA, 2 μM JQ1, 2 μM GSK343, or 10 μM Prostratin alone or in combination with 6 nM PEP005 for 24 hours and the percentage of GFP expressing cells was determined using flow cytometry. **, p<0.01; *, p<0.05 compared with control treatment; **, p<0.01; *, p<0.05 compared with PEP005 treatment alone. (B) The U1 cells were treated with 5 ng/ml PMA, 6 nM PEP005, 500 nM SAHA, 2 μM JQ1, or 2 μM GSK343, alone or in combination with 6 nM PEP005 for 24 hours and the HIV transcription was evaluated using RT-qPCR. Numbers indicate fold-increase over the control. **, p<0.01; *, p<0.05 compared with control treatment; **, p<0.01; *, p<0.05 compared with PEP005 treatment alone. […] The Bliss independence model was utilized for calculation of synergy for LRA combinations. Dotted horizontal line signifies pure additive effect (Δfaxy=0). Synergy is defined as Δfaxy>0 while Δfaxy<0 indicates antagonism. Statistical significance was determined using a one tailed ratio t-test comparing predicted and observed drug combination effects. *p<0.05; **p<0.01.
J-Lat A1 cells (harboring a single copy of latent HIV LTR and one copy of green fluorescent protein gene under the HIV LTR control) or U1 cells (harboring two latent HIV genomes with defective Tat gene) were cultured in RPMI1640 medium with 10% fetal bovine serum (FBS) and 1% Pen/strep in a 37° C. incubator containing 5% CO2 [24,31]. Both of the cell lines were obtained from NIH AIDS Reagent Program. For reactivation of HIV LTR, cells were treated with PMA (Sigma), JQ1 (Biovision), Prostatin (Sigma), SAHA (Santa Cruz), TNF-α (BD), GSK343 (Sigma), or PEP005 (Tocris Bioscience) for 24 h. HIV reactivation was quantified by GFP expression using flow cytometry and the data were analyzed using FlowJo Software for J-Lat A1 cells, or by quantitative RT-PCR (RT-qPCR) for J-Lat A1 and U1 cells. Cell viability was evaluated using Live/Dead dye (Life Technologies) by flow cytometry. So far, there is not a single in vitro cell culture model available that captures all the features of HIV latency. However, PKC agonists seem to reactivate latent HIV in all the cell culture models of viral latency. Similar to other J-Lat cell lines, the J-Lat A1 clone has been widely used by researchers for HIV latency studies. The T-cell-derived J-Lat A1 cells harbor one copy of a construct containing a Tat and a green fluorescent protein (GFP) gene framed by the 5′ and 3′ HIV LTR [32]. The J-Lat A1 cells also contain the TAR loop located within the R region of HIV LTR (nt +1 to +60), which provides an opportunity for Tat-TAR interactions for the modulation of transcription and transcriptional elongation. […]

Cc1ccc(S(=O)(=O)/C=C/C#N)cc1 [Bay-11-7082]
reduction of PEP005-induced latent HIV reactivation [1]: approximately 50%

CCCCCC(=O)O[C@H]1C(C)=C[C@]23C(=O)[C@@H](C=C(CO)[C@@H](O)[C@]12O)[C@H]1[C@@H](C[C@H]3C)C1(C)C [IngB, ingenol-3-hexanoate]
expression of NF-κB/p65 protein, earlier report [24] [2]: increased expression of NF-κB/p65 protein

CCCc1cc(C)[nH]c(=O)c1CNC(=O)c1cc(-c2ccnc(N3CCN(C)CC3)c2)cc2c1cnn2C(C)C [GSK343]
induction of HIV expression, agent alone [3]: failed to induce HIV expression; also recorded: could not effectively induce HIV expression; also recorded: no capacity to reactivate latent HIV by itself
